Results on 5 molecules are retold here after patent publication US20240002370A1, “PYRROLE-TYPE COMPOUNDS AND USES THEREOF FOR TREATING VIRAL INFECTIONS” (ENYO PHARMA, priority 2020, published 2024).

pIC50: −log10 of the molar value.

The assay deals with H1N1 (influenza A/New Caledonia/20/99). Description: microbe, parasite or virus in culture. The class given is cell-based. The conditions noted are these: H1N1, A549, 48 h.
What is called pIC50 is −log10 of the IC50, conventionally taken in molar units. A higher pIC50 goes with a small IC50. For `COC1=CC(c2cc3c([nH]2)CCC(C)C3)=N/C1=C\c1[nH]c(C)cc1C` (centres unmarked) [Compound 19, (Z)-2-(2-((3,5-dimethyl-1H-pyrrol-2-yl)methylene)-3-methoxy-2H-pyrrol-5-yl)-5-methyl-4,5,6,7-tetrahydro-1H-indole], the pIC50 is 7.04. In turn, `COC1=CC(c2cc3ccccc3[nH]2)=N/C1=C\c1[nH]c(C)cc1C` [Obatoclax, reference compound] showed a pIC50 of 7.04.

`COC1=CC(c2cc3c([nH]2)CCCC3)=N/C1=C\c1[nH]c(C)cc1C` [Compound 3, (Z)-2-(2-((3,5-dimethyl-1H-pyrrol-2-yl)methylene)-3-methoxy-2H-pyrrol-5-yl)-4,5,6,7-tetrahydro-1H-indole] gave a negative-log IC50 (pIC50) of 7.25. `COC1=CC(c2cc3c([nH]2)CCCC3C)=N/C1=C\c1[nH]c(C)cc1C` (centres unmarked) [Compound 7, (Z)-2-(2-((3,5-dimethyl-1H-pyrrol-2-yl)methylene)-3-methoxy-2H-pyrrol-5-yl)-4-methyl-4,5,6,7-tetrahydro-1H-indole] had a pIC50 of 7.12. To `COC1=CC(c2cc3c([nH]2)CCCC32CC2)=N/C1=C\c1[nH]c(C)cc1C` [Compound 23, (Z)-2′-(2-((3,5-dimethyl-1H-pyrrol-2-yl)methylene)-3-methoxy-2H-pyrrol-5-yl)-1′,5′,6′,7′-tetrahydrospiro[cyclopropane-1,4′-indole]] belongs 7.11.
